Source: US9650616B2, “Methods for increasing grain yield” (University of Florida Research Foundation, Inc., priority 2014, dated 2017)
Changes are numbered by the printed parent chain.

What was measured:
[1] = system: maize endosperm AGPase, heat stable ISM mutants; test: Apparent kinetic constants with 3-PGA, 37° C., ISM mutants collectively; assay type: biochemical, Zea mays; details: mutants versus wt maize, in the presence of 3-PGA
Description: (§1) An endpoint assay was used to determine the rate of the AGPase reaction by coupling the formation of PPi to a decrease in NADH concentration (Boehlein et al., 2008). […] The Michaelis constants (Km) were obtained by varying one substrate in the presence of saturating concentrations of the second substrate. The activation constants were obtained by varying the activator at fixed levels of both substrates. All reactions were performed at 37° C. and mixes were prewarmed before starting the reaction with enzyme. Reactions were terminated by boiling the reaction mixes for 2 minutes followed by development with 200 μl of coupling reagent (25 mM imidazole pH 7.4, 4 mM MgCl2, 1 mM EDTA, 0.2 mM NADH, 0.725 U aldolase, 0.4 U triose phosphate isomerase, 0.6 U glycerophosphate dehydrogenase, 1 mM fructose 6-phosphate and 0.8 μg purified PPi-PFK per reaction). The absorbance at 340 nm was monitored after 30 min and the amount of PPi produced was determined from a standard curve using PPi in complete reaction mixtures lacking AGPase. Blank samples contained complete reaction mixtures without enzyme and the change in absorbance between the blank and the reaction was used to calculate the amount of PPi produced. Reactions were linear with time and enzyme concentration.
The apparent Michaelis constant and maximum velocity of each reaction was calculated from a V vs. S plots using nonlinear regression analysis and the following equation, v=VmaxS/(Km+S), where v is the measured velocity, Vmax is the maximum velocity, S is the substrate concentration. The activation constant (Ka) was obtained using the following equation: V=Vmin+Vmax*(X)/(Ka+X), where Vmin is the velocity in the absence of activator and Vmax is the change in activity from Vmin to the total velocity. X is the activator concentration, Ka is the activation constant. All linear regression was carried out using the software program Prism (Graph Pad, San Diego Calif.).
Each mutant, comprising 1, 2, 3 or 4 changes, was grown in a large scale culture, expressed and purified according to standard procedures (Boehlein et al., 2005). […] Thus, the effects of these mutations on the kinetic constants are minimal. Next, the activation constant, Ka, was determined for each of the mutant enzymes. Here a decrease in the Ka for each of the mutants of approximately 3-6 fold was observed. This property appears to stem from the D161G change, and includes all enzymes which carry this mutation (Table 8). To be certain the effect is the result of the D161G mutation, and not the result of other single mutant changes, Q96R and Q96G were purified and characterized.

[2] = target: T1, maize endosperm AGPase, large subunit variant GG (Q96G, D161G; numbering of SEQ ID NO: 20) (Zea mays, UniProt P55241+Q84PF5, D161G/Q96G); test: Apparent kinetic constants with 3-PGA, 37° C., GG; assay type: biochemical; details: read-out: ATP Km
T1 sequence (P55241 46-516 D161G/Q96G): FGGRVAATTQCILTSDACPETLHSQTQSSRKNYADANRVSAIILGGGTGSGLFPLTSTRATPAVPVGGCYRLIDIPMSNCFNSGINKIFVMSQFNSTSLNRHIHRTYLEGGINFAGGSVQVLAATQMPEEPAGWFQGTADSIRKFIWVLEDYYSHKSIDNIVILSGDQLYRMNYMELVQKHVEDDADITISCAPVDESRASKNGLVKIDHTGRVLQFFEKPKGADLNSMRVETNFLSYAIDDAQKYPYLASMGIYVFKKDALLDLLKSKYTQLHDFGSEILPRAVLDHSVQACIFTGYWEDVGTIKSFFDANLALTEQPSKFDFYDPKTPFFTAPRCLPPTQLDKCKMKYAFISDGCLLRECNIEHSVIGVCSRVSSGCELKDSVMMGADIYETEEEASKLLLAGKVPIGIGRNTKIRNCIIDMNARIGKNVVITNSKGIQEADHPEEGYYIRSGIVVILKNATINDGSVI
T1 sequence (Q84PF5 1-474): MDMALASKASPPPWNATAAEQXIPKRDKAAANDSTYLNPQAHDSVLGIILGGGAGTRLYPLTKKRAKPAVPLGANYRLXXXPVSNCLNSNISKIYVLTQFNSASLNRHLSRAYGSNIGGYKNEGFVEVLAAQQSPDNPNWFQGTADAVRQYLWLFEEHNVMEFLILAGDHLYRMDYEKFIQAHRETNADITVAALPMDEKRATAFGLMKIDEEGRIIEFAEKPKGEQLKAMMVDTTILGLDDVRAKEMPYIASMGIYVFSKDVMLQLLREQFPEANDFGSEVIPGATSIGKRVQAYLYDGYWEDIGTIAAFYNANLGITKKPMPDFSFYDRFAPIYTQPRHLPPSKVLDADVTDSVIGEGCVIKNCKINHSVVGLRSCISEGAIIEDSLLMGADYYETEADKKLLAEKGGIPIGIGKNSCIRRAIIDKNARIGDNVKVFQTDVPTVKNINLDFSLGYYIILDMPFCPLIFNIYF
Description: The small and large subunit plasmids of maize endosperm AGPase (pMONcBt2 and pMONcSh2, respectively) (Giroux et al., 1996) were expressed in E. coli AC70R1-504 cells (Iglesias et al., 1993) as previously described (Boehlein et al., 2008).
as §1, with “Reactions were terminated by boiling the reaction mixes for 2 minutes followed by development with 200 μl of coupling reagent (25 mM imidazole pH 7.4, 4 mM MgCl2, 1 mM EDTA, 0.2 mM NADH, 0.725 U aldolase, 0.4 U triose phosphate isomerase, 0.6 U glycerophosphate dehydrogenase, 1 mM fructose 6-phosphate and 0.8 μg purified PPi-PFK per reaction).” left out, “Reactions were linear with time and enzyme concentration.” left out
The apparent Michaelis constant and maximum velocity of each reaction was calculated from a V vs. S plots using nonlinear regression analysis and the following equation, v=VmaxS/(Km+S), where v is the measured velocity, Vmax is the maximum velocity, S is the substrate concentration. […]

[3] = target: T2, maize endosperm AGPase, large subunit variant GGR (Q96G, D161G, A443R; numbering of SEQ ID NO: 20) (Zea mays, UniProt P55241+Q84PF5, A443R/D161G/Q96G); test: Pi inhibition in the presence of 3-PGA, GGR; assay type: biochemical; details: read-out: Km (ATP), presence of 3-PGA, ATP varied, Pi inhibition, L-MT
T2 sequence (P55241 46-516 A443R/D161G/Q96G): T1 sequence (P55241 46-516 D161G/Q96G) with A398R
T2 sequence (Q84PF5 1-474): T1 sequence (Q84PF5 1-474)
Description: Inhibition by Pi was then followed in the presence of the activator 3-PGA.

Nc1ncnc2c1ncn2[C@@H]1O[C@H](COP(=O)(O)OP(=O)(O)OP(=O)(O)O)[C@@H](O)[C@H]1O [ATP]
largest variation in Km [1]: approximately two-fold
Km [2]: 31 µM
Km [3]: 110 µM
